# Assay results reported in PubChem BioAssay (NCI).
#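 Test compounds were applied to cells in 96-well plates for 48 hours at 5 doses. The concentration for full growth arrest is given as TGI.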
# Legend:
# Experiment in all cases: inhibition of tumour cell growth, NCI panel, 48 h
# HCT-116 colon = test system: HCT-116 colon
# SW-620 colon = test system: SW-620 colon
# A498 renal = test system: A498 renal
# HT29 colon = test system: HT29 colon
# SR leukemia = test system: SR leukemia
# SK-OV-3 ovarian = test system: SK-OV-3 ovarian
# UACC-62 melanoma = test system: UACC-62 melanoma
# MCF7 breast = test system: MCF7 breast
# U251 CNS = test system: U251 CNS
# COLO 205 colon = test system: COLO 205 colon
# K-562 leukemia = test system: K-562 leukemia
# CCRF-CEM leukemia = test system: CCRF-CEM leukemia
# SF-539 CNS = test system: SF-539 CNS
# OVCAR-4 ovarian = test system: OVCAR-4 ovarian
# HS 578T breast = test system: HS 578T breast
# IGROV1 ovarian = test system: IGROV1 ovarian
# SK-MEL-2 melanoma = test system: SK-MEL-2 melanoma
# M14 melanoma = test system: M14 melanoma
# EKVX NSCLC = test system: EKVX NSCLC
# BT-549 breast = test system: BT-549 breast
# 786-0 renal = test system: 786-0 renal
# RXF 393 renal = test system: RXF 393 renal
# SK-MEL-28 melanoma = test system: SK-MEL-28 melanoma
# SF-295 CNS = test system: SF-295 CNS
# NCI-H460 lung = test system: NCI-H460 lung
# UACC-257 melanoma = test system: UACC-257 melanoma
# HCC-2998 colon = test system: HCC-2998 colon
# T-47D breast = test system: T-47D breast
# SNB-19 CNS = test system: SNB-19 CNS
# DU-145 prostate = test system: DU-145 prostate
# HOP-92 NSCLC = test system: HOP-92 NSCLC
# OVCAR-3 ovarian = test system: OVCAR-3 ovarian
# NCI/ADR-RES ovarian = test system: NCI/ADR-RES ovarian
# NCI-H522 lung = test system: NCI-H522 lung
# SN12C renal = test system: SN12C renal
# MALME-3M melanoma = test system: MALME-3M melanoma
# RPMI-8226 leukemia = test system: RPMI-8226 leukemia
# OVCAR-8 ovarian = test system: OVCAR-8 ovarian
# LOX IMVI melanoma = test system: LOX IMVI melanoma
# UO-31 renal = test system: UO-31 renal
# SF-268 CNS = test system: SF-268 CNS
# MDA-MB-231 breast = test system: MDA-MB-231 breast
# MDA-N = test system: MDA-N
# SNB-75 CNS = test system: SNB-75 CNS
# MDA-MB-435 = test system: MDA-MB-435
# HCT-15 colon = test system: HCT-15 colon
# SK-MEL-5 melanoma = test system: SK-MEL-5 melanoma
# HOP-62 NSCLC = test system: HOP-62 NSCLC
# A549 NSCLC = test system: A549 NSCLC
# NCI-H226 lung = test system: NCI-H226 lung
# ACHN renal = test system: ACHN renal
# TK-10 renal = test system: TK-10 renal
# KM12 colon = test system: KM12 colon
# OVCAR-5 ovarian = test system: OVCAR-5 ovarian
# HL-60(TB) leukemia = test system: HL-60(TB) leukemia
# PC-3 prostate = test system: PC-3 prostate
# CAKI-1 renal = test system: CAKI-1 renal
# NCI-H23 lung = test system: NCI-H23 lung
# MOLT-4 leukemia = test system: MOLT-4 leukemia
smiles,measurement,setting,value
Br[Se]c1ccccn1,TGI,HCT-116 colon,33 µM
same,TGI,SW-620 colon,51.4 µM
same,TGI,A498 renal,34 µM
same,TGI,HT29 colon,53.9 µM
same,TGI,SR leukemia,65.8 µM
same,TGI,SK-OV-3 ovarian,34.8 µM
same,TGI,UACC-62 melanoma,30.9 µM
same,TGI,MCF7 breast,32.5 µM
same,TGI,U251 CNS,29 µM
same,TGI,COLO 205 colon,30.8 µM
same,TGI,K-562 leukemia,72 µM
same,TGI,CCRF-CEM leukemia,> 100 µM
same,TGI,SF-539 CNS,30 µM
same,TGI,OVCAR-4 ovarian,30.9 µM
same,TGI,HS 578T breast,40.3 µM
same,TGI,IGROV1 ovarian,31.5 µM
same,TGI,SK-MEL-2 melanoma,30.1 µM
same,TGI,M14 melanoma,31.7 µM
same,TGI,EKVX NSCLC,31.5 µM
same,TGI,BT-549 breast,32.9 µM
same,TGI,786-0 renal,32.6 µM
same,TGI,RXF 393 renal,31 µM
same,TGI,SK-MEL-28 melanoma,37.5 µM
same,TGI,SF-295 CNS,17 µM
same,TGI,NCI-H460 lung,42 µM
same,TGI,UACC-257 melanoma,31.7 µM
same,TGI,HCC-2998 colon,35.5 µM
same,TGI,T-47D breast,54.1 µM
same,TGI,SNB-19 CNS,24.8 µM
same,TGI,DU-145 prostate,30.8 µM
same,TGI,HOP-92 NSCLC,33 µM
same,TGI,OVCAR-3 ovarian,28.9 µM
same,TGI,NCI/ADR-RES ovarian,61.6 µM
same,TGI,NCI-H522 lung,30.4 µM
same,TGI,SN12C renal,33.1 µM
same,TGI,MALME-3M melanoma,31.2 µM
same,TGI,RPMI-8226 leukemia,60.9 µM
same,TGI,OVCAR-8 ovarian,36 µM
same,TGI,LOX IMVI melanoma,33 µM
same,TGI,UO-31 renal,31.2 µM
same,TGI,SF-268 CNS,32.2 µM
same,TGI,MDA-MB-231 breast,31.5 µM
same,TGI,MDA-N,32.2 µM
same,TGI,SNB-75 CNS,30.7 µM
same,TGI,MDA-MB-435,31.8 µM
same,TGI,HCT-15 colon,38.4 µM
same,TGI,SK-MEL-5 melanoma,28.9 µM
same,TGI,HOP-62 NSCLC,12.2 µM
same,TGI,A549 NSCLC,44.3 µM
same,TGI,NCI-H226 lung,36.8 µM
same,TGI,ACHN renal,29.9 µM
same,TGI,TK-10 renal,34.5 µM
same,TGI,KM12 colon,31.7 µM
same,TGI,OVCAR-5 ovarian,35.1 µM
same,TGI,HL-60(TB) leukemia,40.3 µM
same,TGI,PC-3 prostate,30 µM
same,TGI,CAKI-1 renal,33 µM
same,TGI,NCI-H23 lung,39.3 µM
COc1ccc(C2=CC(C(C)=C(C(N)=O)C(N)=O)C=C(c3ccc(Br)cc3)C2)c(OC)c1 (stereo not given),TGI,HCT-116 colon,> 100 µM
same,TGI,SW-620 colon,> 100 µM
same,TGI,A498 renal,> 100 µM
same,TGI,HT29 colon,> 100 µM
same,TGI,SR leukemia,> 100 µM
same,TGI,SK-OV-3 ovarian,> 100 µM
same,TGI,UACC-62 melanoma,> 100 µM
same,TGI,MCF7 breast,> 100 µM
same,TGI,U251 CNS,> 100 µM
same,TGI,COLO 205 colon,> 100 µM
same,TGI,K-562 leukemia,> 100 µM
same,TGI,CCRF-CEM leukemia,> 100 µM
same,TGI,OVCAR-4 ovarian,> 100 µM
same,TGI,HS 578T breast,> 100 µM
same,TGI,IGROV1 ovarian,> 100 µM
same,TGI,SK-MEL-2 melanoma,> 100 µM
same,TGI,M14 melanoma,> 100 µM
same,TGI,EKVX NSCLC,> 100 µM
same,TGI,BT-549 breast,> 100 µM
same,TGI,786-0 renal,> 100 µM
same,TGI,RXF 393 renal,> 100 µM
same,TGI,SK-MEL-28 melanoma,> 100 µM
same,TGI,SF-295 CNS,> 100 µM
same,TGI,NCI-H460 lung,> 100 µM
same,TGI,UACC-257 melanoma,> 100 µM
same,TGI,HCC-2998 colon,> 100 µM
same,TGI,T-47D breast,> 100 µM
same,TGI,SNB-19 CNS,> 100 µM
same,TGI,DU-145 prostate,> 100 µM
same,TGI,HOP-92 NSCLC,> 100 µM
same,TGI,OVCAR-3 ovarian,> 100 µM
same,TGI,NCI/ADR-RES ovarian,> 100 µM
same,TGI,NCI-H522 lung,> 100 µM
same,TGI,SN12C renal,> 100 µM
same,TGI,RPMI-8226 leukemia,> 100 µM
same,TGI,OVCAR-8 ovarian,> 100 µM
same,TGI,LOX IMVI melanoma,> 100 µM
same,TGI,UO-31 renal,> 100 µM
same,TGI,SF-268 CNS,> 100 µM
same,TGI,MDA-MB-231 breast,> 100 µM
same,TGI,MDA-N,> 100 µM
same,TGI,SNB-75 CNS,> 100 µM
same,TGI,MDA-MB-435,> 100 µM
same,TGI,HCT-15 colon,> 100 µM
same,TGI,SK-MEL-5 melanoma,> 100 µM
same,TGI,HOP-62 NSCLC,> 100 µM
same,TGI,A549 NSCLC,> 100 µM
same,TGI,NCI-H226 lung,> 100 µM
same,TGI,ACHN renal,> 100 µM
same,TGI,TK-10 renal,> 100 µM
same,TGI,MOLT-4 leukemia,> 100 µM
same,TGI,KM12 colon,> 100 µM
same,TGI,OVCAR-5 ovarian,> 100 µM
same,TGI,HL-60(TB) leukemia,> 100 µM
same,TGI,PC-3 prostate,> 100 µM
same,TGI,CAKI-1 renal,> 100 µM
same,TGI,NCI-H23 lung,> 100 µM
CC(C)=C[C@H]1C[C@H](C)[C@H]2CC[C@H](C)c3c2c1c(C)c1ncoc31,TGI,HCT-116 colon,33.6 µM
same,TGI,SW-620 colon,36 µM
same,TGI,A498 renal,34.9 µM
same,TGI,SR leukemia,40.9 µM
same,TGI,UACC-62 melanoma,32.9 µM
same,TGI,MCF7 breast,30.5 µM
same,TGI,U251 CNS,34 µM
same,TGI,COLO 205 colon,33.6 µM
same,TGI,K-562 leukemia,> 100 µM
same,TGI,CCRF-CEM leukemia,39.6 µM
same,TGI,SF-539 CNS,32.5 µM
same,TGI,OVCAR-4 ovarian,34.1 µM
same,TGI,HS 578T breast,45 µM
same,TGI,IGROV1 ovarian,27 µM
same,TGI,SK-MEL-2 melanoma,31.1 µM
same,TGI,M14 melanoma,29.3 µM
same,TGI,EKVX NSCLC,30 µM
same,TGI,BT-549 breast,36.3 µM
same,TGI,786-0 renal,36.1 µM
same,TGI,RXF 393 renal,25.7 µM
same,TGI,SK-MEL-28 melanoma,37 µM
same,TGI,SF-295 CNS,31.2 µM
same,TGI,NCI-H460 lung,35.6 µM
same,TGI,UACC-257 melanoma,33.5 µM
same,TGI,HCC-2998 colon,35.8 µM
same,TGI,T-47D breast,37.9 µM
same,TGI,SNB-19 CNS,32.3 µM
same,TGI,DU-145 prostate,33.9 µM
same,TGI,HOP-92 NSCLC,31.4 µM
same,TGI,OVCAR-3 ovarian,28.7 µM
same,TGI,NCI/ADR-RES ovarian,32.4 µM
same,TGI,NCI-H522 lung,31.5 µM
same,TGI,SN12C renal,35.6 µM
same,TGI,MALME-3M melanoma,29.5 µM
same,TGI,RPMI-8226 leukemia,36.9 µM
same,TGI,OVCAR-8 ovarian,36.8 µM
same,TGI,LOX IMVI melanoma,37.7 µM
same,TGI,UO-31 renal,31.5 µM
same,TGI,SF-268 CNS,46 µM
same,TGI,MDA-MB-231 breast,39.3 µM
same,TGI,MDA-N,34.2 µM
same,TGI,SNB-75 CNS,36.2 µM
same,TGI,MDA-MB-435,38.9 µM
same,TGI,HCT-15 colon,34.8 µM
same,TGI,SK-MEL-5 melanoma,28.6 µM
same,TGI,A549 NSCLC,32.3 µM
same,TGI,NCI-H226 lung,33.2 µM
same,TGI,ACHN renal,32.7 µM
same,TGI,TK-10 renal,31.7 µM
same,TGI,MOLT-4 leukemia,32.3 µM
same,TGI,KM12 colon,34.5 µM
same,TGI,OVCAR-5 ovarian,29.9 µM
same,TGI,HL-60(TB) leukemia,44.8 µM
same,TGI,PC-3 prostate,35.2 µM
same,TGI,CAKI-1 renal,35.5 µM
